This note sets out measurements from US9670184B2, “Amorphous allisartan isoproxil, preparation method therefor, and pharmaceutical composition containing amorphous allisartan isoproxil” (SHENZHEN SALUBRIS PHARMACEUTICALS CO. LTD, priority 2013, dated 2017).

Common to all, as to format: physicochemical
Data set [1] in a line: Repose angle of powders by fixed-funnel method. The settings on record: powder sieved through 100-mesh screen. The source says: (§1) The powders of experiment 1 and 3 were pulverized and then sieved through a 100-mesh screen to obtain powders with particle size similar to the crystal powder. Then the repose angles of the powders were detected respectively by using a fixed-funnel method; and the bulk densities of the powders were detected respectively by using measurement in a graduated cylinder (Method I of Bulk Density disclosed in Ph. Eur), and the results were shown in the table below: […]

The nature of data set [2]: Bulk density of powders, measurement in a graduated cylinder (Method I of Bulk Density, Ph. Eur). The settings on record: powder sieved through 100-mesh screen.
From the text: as §1

Data set [3] can be described thus: Electrostatic phenomenon of the dried powder (observation). The settings on record: powder after drying.

As for `CCCCc1nc(Cl)c(C(=O)OCOC(=O)OC(C)C)n1Cc1ccc(-c2ccccc2-c2nnn[nH]2)cc1` [Amorphous allisartan isoproxil obtained from experiment 3] [2-butyl-4-chloro-1-[2′-(1H-tetrazol-5-yl)-1,1′-biphenyl-methyl]-imidazole-5-carboxylic acid, 1-[(isopropoxy)-carbonyloxy]methyl ester], in data set [1], the “Repose Angle” value was 33-36 °. Also, the “Bulk Density” value in data set [2] stood at 0.79 g/mL. In addition, in data set [3], the Electrostatic phenomenon result is on record as “no obvious electrostatic phenomenon”.
`CCCCc1nc(Cl)c(C(=O)OCOC(=O)OC(C)C)n1Cc1ccc(-c2ccccc2-c2nnn[nH]2)cc1` [Patent Crystal, 2-butyl-4-chloro-1-[2′-(1H-tetrazol-5-yl)-1,1′-biphenyl-methyl]-imidazole-5-carboxylic acid, 1-[(isopropoxy)-carbonyloxy]methyl ester, reference compound]: the “Repose Angle” value in data set [1] was 48-53 °. Also, the “Bulk Density” value in data set [2] came to 0.51 g/mL. The Electrostatic phenomenon result in data set [3] is on record as “obvious electrostatic phenomenon”.
For `CCCCc1nc(Cl)c(C(=O)OCOC(=O)OC(C)C)n1Cc1ccc(-c2ccccc2-c2nnn[nH]2)cc1` [Amorphous allisartan isoproxil obtained from experiment 1] [2-butyl-4-chloro-1-[2′-(1H-tetrazol-5-yl)-1,1′-biphenyl-methyl]-imidazole-5-carboxylic acid, 1-[(isopropoxy)-carbonyloxy]methyl ester], in data set [1], the “Repose Angle” value is on record as 33-36 °. The “Bulk Density” value in data set [2] was found to be 0.77 g/mL. The Electrostatic phenomenon entry in data set [3] is listed as “no obvious electrostatic phenomenon”.
On to `CCCCc1nc(Cl)c(C(=O)OCOC(=O)OC(C)C)n1Cc1ccc(-c2ccccc2-c2nnn[nH]2)cc1` [Experiment 2, 2-butyl-4-chloro-1-[2′-(1H-tetrazol-5-yl)-1,1′-biphenyl-methyl]-imidazole-5-carboxylic acid, 1-[(isopropoxy)-carbonyloxy]methyl ester], for which, in data set [3], the Electrostatic phenomenon result was “no obvious electrostatic phenomenon”.
